According to patent US8367714B2, “Cannabinoid receptor targeted agent” (Vanderbilt University, priority 2007, dated 2013):

Assays:
CB2 receptor [1] = biological target: T1, CB2 receptor (Mus musculus, UniProt P47936); assay: Fluorescence imaging of live DBT cells (2D4 CB2-expressing clone and wild type) and competition study; format: cell-based; details: 5 μM, control for non-specific binding due to the dye (FIG. 2)
T1 construct: expressed in transfected cells; host or cells: DBT mouse astrocytoma cells, 2D4 clone; wild-type DBT cells lack CB2
T1 sequence (P47936 whole entry): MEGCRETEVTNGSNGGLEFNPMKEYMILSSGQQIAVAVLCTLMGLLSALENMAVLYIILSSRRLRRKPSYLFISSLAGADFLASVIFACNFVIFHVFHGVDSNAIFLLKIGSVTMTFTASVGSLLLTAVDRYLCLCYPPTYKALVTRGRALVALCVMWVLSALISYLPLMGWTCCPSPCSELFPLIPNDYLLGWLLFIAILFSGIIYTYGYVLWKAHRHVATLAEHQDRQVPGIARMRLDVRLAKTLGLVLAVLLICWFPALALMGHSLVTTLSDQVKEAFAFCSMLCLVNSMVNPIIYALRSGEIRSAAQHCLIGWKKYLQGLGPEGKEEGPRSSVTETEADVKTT
Excerpt: To test whether NIRmbc94 reliably binds to the CB2 receptor, we already had in place a system wherein the receptor was both absent and present.

CB2 receptor [2] = biological target: CB2 receptor (Homo sapiens, UniProt P34972); details: cited from earlier work
CB2 receptor (Homo sapiens, UniProt P34972), sequence (P34972 whole entry): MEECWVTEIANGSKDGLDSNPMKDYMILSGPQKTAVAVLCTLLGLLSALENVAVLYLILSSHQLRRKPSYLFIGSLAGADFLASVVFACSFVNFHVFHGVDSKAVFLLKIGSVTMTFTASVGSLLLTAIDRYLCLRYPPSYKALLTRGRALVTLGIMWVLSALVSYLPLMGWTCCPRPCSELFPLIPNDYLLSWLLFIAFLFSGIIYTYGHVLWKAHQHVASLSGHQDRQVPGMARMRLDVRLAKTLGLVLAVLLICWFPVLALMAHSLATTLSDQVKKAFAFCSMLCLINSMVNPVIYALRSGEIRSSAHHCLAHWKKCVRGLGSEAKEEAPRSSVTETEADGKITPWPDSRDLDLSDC

Row | Compound | fluorescence of cells dosed with free dye (CB2 receptor [1]) | CB2/CB1 affinity ratio (CB2 receptor [2])
1 | CC1(C)C(=CC=C2CCCC(C=CC3=[N+](CCCCCC(=O)[O-])c4ccc(S(=O)(=O)[O-])cc4C3(C)C)=C2Oc2ccc(S(=O)(=O)[O-])cc2)N(CCCCS(=O)(=O)[O-])c2ccc(S(=O)(=O)[O-])cc21.[Na+].[Na+].[Na+].[Na+] [IRDye™ 800CW acid] | does not produce significant fluorescence | 
2 | SR144528 |  | > 700
3 | COc1ccc(C(=O)c2c(C)n(CCN3CCOCC3)c3cc(I)ccc23)cc1 [AM630] |  | 165
